Columns and labels:
[1] = test system: normal NK cells expanded with K562-aAPC; assay: percent inhibition of viability; higher = more inhibition; settings: 72 h, IL-2 2.5 ng/mL
Procedure: (§1)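 Drug sensitivity and resistance testing on K562-aAPC-expanded normal NK cells: 5 concentrations (10-fold steps over a 10,000-fold range), 72 h at 37 °C, viability by CellTiter-Glo normalised to DMSO and benzethonium chloride controls; DSS from the fitted curve.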

DERL-7 (IL-2 2.5 ng/mL) [2] = assay: as above; settings: 72 h
IMC-1 (IL-2 20 ng/mL) [3] = assay: as above; settings: 72 h
KAI3 (IL-2 2.5 ng/mL) [4] = assay: as above; settings: 72 h
KHYG-1 (IL-2 2.5 ng/mL) [5] = assay: as above; settings: 72 h
NK-92 (IL-2 2.5 ng/mL) [6] = assay: as above; settings: 72 h
NK-YS (IL-2 2.5 ng/mL) [7] = assay: as above; settings: 72 h
NKL (IL-2 2.5 ng/mL) [8] = assay: as above; settings: 72 h
SNK-6 (IL-2 2.5 ng/mL) [9] = assay: as above; settings: 72 h
YT (IL-2 2.5 ng/mL) [10] = assay: as above; settings: 72 h
[11] = test system: normal primary NK cells, pool 1 (3 donors) (IL-2 2.5 ng/mL); assay: as above; settings: 72 h
[12] = test system: normal primary NK cells, pool 1 (3 donors), resting (IL-2 0 ng/mL); assay: as above; settings: 72 h
[13] = test system: normal primary NK cells, pool 2 (3 donors) (IL-2 2.5 ng/mL); assay: as above; settings: 72 h
[14] = test system: normal primary NK cells, pool 3 (3 donors) (IL-2 2.5 ng/mL); assay: as above; settings: 72 h
[15] = test system: normal NK cells expanded with K562-aAPC; assay: drug sensitivity score (DSS) (DSS units); higher = more sensitive; extreme values may be limits of the assay; settings: 72 h; IL-2 2.5 ng/mL
Procedure: as §1

DERL-7 (IL-2 2.5 ng/mL) [16] = assay: as above; settings: 72 h
IMC-1 (IL-2 20 ng/mL) [17] = assay: as above; settings: 72 h
KAI3 (IL-2 2.5 ng/mL) [18] = assay: as above; settings: 72 h
KHYG-1 (IL-2 2.5 ng/mL) [19] = assay: as above; settings: 72 h
NK-92 (IL-2 2.5 ng/mL) [20] = assay: as above; settings: 72 h
NK-YS (IL-2 2.5 ng/mL) [21] = assay: as above; settings: 72 h
NKL (IL-2 2.5 ng/mL) [22] = assay: as above; settings: 72 h
SNK-6 (IL-2 2.5 ng/mL) [23] = assay: as above; settings: 72 h
YT (IL-2 2.5 ng/mL) [24] = assay: as above; settings: 72 h
[25] = test system: normal primary NK cells, pool 1 (3 donors) (IL-2 2.5 ng/mL); assay: as above; settings: 72 h
[26] = test system: normal primary NK cells, pool 1 (3 donors), resting (IL-2 0 ng/mL); assay: as above; settings: 72 h
[27] = test system: normal primary NK cells, pool 2 (3 donors) (IL-2 2.5 ng/mL); assay: as above; settings: 72 h
[28] = test system: normal primary NK cells, pool 3 (3 donors) (IL-2 2.5 ng/mL); assay: as above; settings: 72 h

C[C@@H]1CN(Cc2ccc(F)cc2)[C@@H](C)CN1C(=O)c1cc2c(C(=O)C(=O)N(C)C)cn(C)c2cc1Cl [Talmapimod] (max concentration tested 10000 nM)
percent inhibition of viability [%]
Settings | 1 nM | 10 nM | 100 nM | 1000 nM | 10000 nM
DERL-7 (IL-2 2.5 ng/mL) [2] | -8.76 | 3.34 | -3.64 | 2.18 | -3.8
IMC-1 (IL-2 20 ng/mL) [3] | -2.4 | -5.13 | -5.16 | -10.4 | 0.72
KAI3 (IL-2 2.5 ng/mL) [4] | -4.84 | 8.7 | 21.6 | 21.2 | 32.1
KHYG-1 (IL-2 2.5 ng/mL) [5] | -8.74 | -9.48 | -3.07 | -9.07 | -3.04
NK-92 (IL-2 2.5 ng/mL) [6] | -13.6 | -14.2 | -7.08 | -0.77 | 6.94
NK-YS (IL-2 2.5 ng/mL) [7] | -5.34 | -2.3 | 1.96 | 6.17 | 14.5
NKL (IL-2 2.5 ng/mL) [8] | -6.18 | -3.36 | 7.54 | 9.7 | 22.9
SNK-6 (IL-2 2.5 ng/mL) [9] | -0.46 | -0.9 | -3.03 | -23.7 | -10.1
YT (IL-2 2.5 ng/mL) [10] | -3.64 | -1.4 | 4.73 | 5.29 | 14.3
[1] | -9.71 | -4.89 | -9.38 | -4.26 | -10.1
[11] | -13.6 | -10.8 | -4.95 | -6.75 | 2.92
[12] | -0.54 | -6.9 | 17.6 | 15.2 | 37
[13] | -0.88 | -7.3 | -3.09 | 1.69 | 0.02
[14] | -3.75 | 4.83 | 4.73 | 0.2 | 1.78

Settings | drug sensitivity score
DERL-7 (IL-2 2.5 ng/mL) [16] | 0
IMC-1 (IL-2 20 ng/mL) [17] | 0
KAI3 (IL-2 2.5 ng/mL) [18] | 6.42
KHYG-1 (IL-2 2.5 ng/mL) [19] | 0
NK-92 (IL-2 2.5 ng/mL) [20] | 0
NK-YS (IL-2 2.5 ng/mL) [21] | 0.37
NKL (IL-2 2.5 ng/mL) [22] | 1.47
SNK-6 (IL-2 2.5 ng/mL) [23] | 0
YT (IL-2 2.5 ng/mL) [24] | 0.18
[15] | 0
[25] | 0
[26] | 4.01
[27] | 0
[28] | 0

CC(C)(C)Cn1c(N)nc2ccc(-c3[nH]c(C(C)(C)C)nc3-c3ccc(F)cc3)nc21 [Ralimetinib] (max concentration tested 10000 nM)
percent inhibition of viability [%]
Settings | 1 nM | 10 nM | 100 nM | 1000 nM | 10000 nM
DERL-7 (IL-2 2.5 ng/mL) [2] | -0.84 | 3.26 | 3.67 | 8.89 | 48.2
IMC-1 (IL-2 20 ng/mL) [3] | -2.69 | -3.53 | -8.24 | -9.02 | -12.2
KAI3 (IL-2 2.5 ng/mL) [4] | 5.37 | 12.8 | 12.9 | 10.1 | 11
KHYG-1 (IL-2 2.5 ng/mL) [5] | -1.88 | -3.23 | -1.97 | 1.06 | 46.9
NK-92 (IL-2 2.5 ng/mL) [6] | -0.07 | 2.05 | 1.85 | 13.3 | 86.5
NK-YS (IL-2 2.5 ng/mL) [7] | -3.85 | 0.83 | 1.68 | 3.41 | 13.1
NKL (IL-2 2.5 ng/mL) [8] | 0.97 | 4.97 | 7.92 | 17.1 | 70
SNK-6 (IL-2 2.5 ng/mL) [9] | -2.2 | -16 | -17.2 | -21.4 | 9.93
YT (IL-2 2.5 ng/mL) [10] | 1.29 | 1.91 | 4.09 | 6.38 | 55.6
[1] | -3.87 | -2.62 | -1.53 | -3.78 | 1.72
[11] | -10.9 | -14.6 | 6.91 | -4.19 | 51.1
[12] | -14.8 | -29.1 | -0.22 | -17.7 | 77
[13] | -10.8 | -12.4 | -9.11 | -7.41 | 31.4
[14] | -7.2 | -12.3 | -15.7 | -6.16 | 11.3

Settings | drug sensitivity score
DERL-7 (IL-2 2.5 ng/mL) [16] | 4
IMC-1 (IL-2 20 ng/mL) [17] | 0
KAI3 (IL-2 2.5 ng/mL) [18] | 0
KHYG-1 (IL-2 2.5 ng/mL) [19] | 2.57
NK-92 (IL-2 2.5 ng/mL) [20] | 7.03
NK-YS (IL-2 2.5 ng/mL) [21] | 0.28
NKL (IL-2 2.5 ng/mL) [22] | 6.44
SNK-6 (IL-2 2.5 ng/mL) [23] | 0
YT (IL-2 2.5 ng/mL) [24] | 4.06
[15] | 0
[25] | 2.38
[26] | 3.35
[27] | 1.04
[28] | 0

CCNC(=O)c1noc(-c2cc(C(C)C)c(O)cc2O)c1-c1ccc(CN2CCOCC2)cc1 [Luminespib] (max concentration tested 1000 nM)
percent inhibition of viability [%]
Settings | 0.1 nM | 1 nM | 10 nM | 100 nM | 1000 nM
DERL-7 (IL-2 2.5 ng/mL) [2] | 2.4 | 1.89 | 99.7 | 100 | 100
IMC-1 (IL-2 20 ng/mL) [3] | -0.63 | -3.7 | 51.6 | 99.6 | 99.7
KAI3 (IL-2 2.5 ng/mL) [4] | 1.34 | 8.03 | 88.8 | 100 | 97.7
KHYG-1 (IL-2 2.5 ng/mL) [5] | -1.01 | 1.79 | 47.7 | 102 | 99.4
NK-92 (IL-2 2.5 ng/mL) [6] | -9.62 | -1.81 | 66.9 | 97.9 | 95
NK-YS (IL-2 2.5 ng/mL) [7] | -0.03 | 4.35 | 89.3 | 98.7 | 97.7
NKL (IL-2 2.5 ng/mL) [8] | -1.62 | -1.66 | 87.8 | 86.7 | 85.5
SNK-6 (IL-2 2.5 ng/mL) [9] | -5.65 | 9.52 | 35.8 | 85.2 | 87.3
YT (IL-2 2.5 ng/mL) [10] | -1.24 | -3.01 | 7.32 | 89.6 | 92.1
[1] | -2.12 | -2.95 | 97.5 | 97.4 | 97.4
[11] | -3.81 | 5.41 | 76.8 | 82.5 | 86.2
[12] | -4.56 | -1.24 | 21.2 | 46.8 | 48.1
[13] | -11.3 | 0.74 | 74.2 | 74.9 | 76
[14] | -20 | -6.55 | 68.1 | 75.4 | 77.5

Settings | drug sensitivity score
DERL-7 (IL-2 2.5 ng/mL) [16] | 30.7
IMC-1 (IL-2 20 ng/mL) [17] | 24.3
KAI3 (IL-2 2.5 ng/mL) [18] | 29.8
KHYG-1 (IL-2 2.5 ng/mL) [19] | 24
NK-92 (IL-2 2.5 ng/mL) [20] | 25.4
NK-YS (IL-2 2.5 ng/mL) [21] | 29.1
NKL (IL-2 2.5 ng/mL) [22] | 26.9
SNK-6 (IL-2 2.5 ng/mL) [23] | 19.6
YT (IL-2 2.5 ng/mL) [24] | 17.6
[15] | 29.5
[25] | 25.7
[26] | 11.5
[27] | 23.5
[28] | 22.2
